Laboratory results reported in PMC9551036, “A selective and orally bioavailable VHL-recruiting PROTAC achieves SMARCA2 degradation in vivo” (Nature Communications, 2022).
“And” between values parts separate entries of the source, which are not always exact repeats. Equal entries are not always repeated. Where two headings read alike, the source gives them in different places.

How the values were obtained:
SMARCA4^BD = molecular target: T1, SMARCA4^BD (Homo sapiens, UniProt P51532); experiment: SPR binding to immobilised SMARCA4 bromodomain
T1 construct: P51532, residues 1448–1569 with additional N-terminal SM residues; GST (TEV site) (N, cleaved yes); made in house; host or cells: Escherichia coli BL21(DE3); construct from SGC Toronto
T1 sequence (P51532 1448-1569): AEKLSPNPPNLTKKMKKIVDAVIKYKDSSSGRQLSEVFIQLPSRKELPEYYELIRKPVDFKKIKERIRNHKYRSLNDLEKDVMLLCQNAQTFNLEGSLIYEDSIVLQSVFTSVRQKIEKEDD
Experimental: SMARCA4^BD was provided by the Structural Genomics Consortium (SGC), Toronto[32] and SMARCA2^BD and PRM1^BD5 were synthesised by GeneArt then subcloned into pDEST15 vectors (Invitrogen). The VCB complex was expressed and purified as described previously, with the modification that 0.3 mM IPTG was used for induction of expression. […] Both were stored in 20 mM 4-(2-hydroxyethyl)−1-piperazineethanesulfonic acid (HEPES), 150 mM sodium chloride and 1 mM tris(2-carboxyethyl)phosphine (TCEP) pH 7.5. SMARCA2^BD, SMARCA4^BD and PBRM1^BD5 were expressed in Escherichia coli BL21(DE3) as N-terminal GST fusion proteins with a TEV protease cleavage site. Expression and purification of these proteins has been described previously[32],[33]. Starter cultures were grown overnight at 37 °C in 10 mL of Luria-Bertani (LB) medium with ampicillin (100 μg/mL). The starter cultures were diluted (1:100) in Terrific Broth (TB) medium with ampicillin (100 μg/mL) and grown in a shaking incubator at 37 °C to an optical density (OD600) ~1 before the temperature was lowered for induction (to 23 °C for SMARCA2^BD or 18 °C for SMARCA4^BD and PRRM1^BD5). […] Cells were harvested by centrifugation and stored at −80 °C prior to purification. Cells were resuspended in Lysis buffer and lysed by sonication (20 pulses of 5 s for 4 min) using a Sonopuls HD 3080 (Bandelin, Berlin, Germany) or by homogenisation using a Stansted Pressure Cell Homogeniser (Stansted Fluid Power). The Lysis buffers were as follows: for SMARCA2^BD: 50 mM HEPES, 500 mM sodium chloride, 5% glycerol, 5 mM dithiothreitol (DTT); for SMARCA4^BD: 25 mM HEPES, 0.3 M sodium chloride, 5% glycerol, 10 mM DTT, pH 7.5; for PBRM1^BD5: 25 mM HEPES, 300 mM sodium chloride, 5% glycerol, 10 mM DTT, pH 7.8; in each case supplemented with complete protease inhibitors (Roche). Affinity purification was performed using Glutathione Sepharose 4B (GE Healthcare) in batch mode or on-column. […] For SMARCA2^BD, prior to TEV protease cleavage the eluted GST-tagged BD was first dialysed into desalting buffer (20 mM HEPES, 250 mM sodium chloride, pH 7.0 + 0.5% glycerol). Where TEV cleavage was performed in solution, a second affinity (GST-trap) column purification step was carried out to remove the GST-tag and uncleaved GST-tagged protein. Proteins were further purified by SEC (HiLoad Superdex-75, 16/600) (GE Healthcare) and stored in Storage buffer (for SMARCA2^BD: 20 mM HEPES, 150 mM sodium chloride, pH 7.5; for SMARCA4^BD: 10 mM HEPES, 0.5 M NaCl, 5% glycerol, pH 7.5; for PBRM1^BD5: 20 mM HEPES, 300 mM NaCl, 5 mM DTT, pH 7.8). For AlphaScreen assays, eluted GST-tagged BDs were purified directly by SEC in the respective storage buffers without TEV cleavage. All chromatography purification steps were performed either at room temperature or 4 °C using an ÄKTA FPLC purification system (GE Healthcare) or a plastic Econo-Pac column (Bio-Rad).
SPR data were acquired on Biacore 8K or T200 instruments (Cytiva). Target proteins were immobilised at 25 °C on CM5 chips by amine coupling (EDC/NHS, Cytiva) in HBS-P+ running buffer (pH 7.4), containing 2 mM TCEP. After surface activation with EDC/NHS (contact time 420 s, flow rate 10 µl/min) SMARCA2^BD and SMARCA4^BD at 0.01–0.05 mg/ml in coupling buffer (10 mM Na-Acetate pH 6.5, 0.005% TWEEN 20 and 50 µM PFI-3[13]) were immobilised to a density of 100–5000 Response Units (RU). The reference surface was subsequently deactivated using 1 M ethanolamine. For VCB immobilisation, streptavidin (Sigma Aldrich, prepared at 1 mg/ml in 10 mM sodium acetate coupling buffer, pH 5.0) was immobilised by amine coupling to a density of 3000–5000 RU after which biotinylated VCB complex (0.125 mM in running buffer) was streptavidin-coupled to a density of 100–500 RU. Biotinylated VCB was prepared as previously described[27]: in brief, the complex was mixed 1:1 with EZ-Link NHS–PEG4–biotin (Thermo Scientific) and incubated at room temperature for 1 h.

PBRM1BD5 = molecular target: T2, PBRM1BD5 (Homo sapiens, UniProt Q86U86); experiment: TR-FRET ternary complex affinity and cooperativity, PBRM1; format: binding
T2 construct: GST (TEV site) (N); His6 (TEV site) (N, cleaved yes); made in house; host or cells: PBRM1^BD5: Escherichia coli BL21(DE3)
T2 sequence (Q86U86 645-766): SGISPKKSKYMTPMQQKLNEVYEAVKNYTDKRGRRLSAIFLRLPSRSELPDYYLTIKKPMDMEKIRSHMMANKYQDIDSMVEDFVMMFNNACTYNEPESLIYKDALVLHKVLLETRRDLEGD

SMARCA4 = SMARCA4 (Homo sapiens, UniProt P51532); experiment: Imaging-based SMARCA4 protein assay in RKO cells; format: cell-based; parameters: endogenous in cells; host or cells: RKO, HCT116, LU99, HCC-364, HCT-15, HCC4006, SK-N-AS; settings: individual replicates
Chain of SMARCA4 (P51532 whole entry): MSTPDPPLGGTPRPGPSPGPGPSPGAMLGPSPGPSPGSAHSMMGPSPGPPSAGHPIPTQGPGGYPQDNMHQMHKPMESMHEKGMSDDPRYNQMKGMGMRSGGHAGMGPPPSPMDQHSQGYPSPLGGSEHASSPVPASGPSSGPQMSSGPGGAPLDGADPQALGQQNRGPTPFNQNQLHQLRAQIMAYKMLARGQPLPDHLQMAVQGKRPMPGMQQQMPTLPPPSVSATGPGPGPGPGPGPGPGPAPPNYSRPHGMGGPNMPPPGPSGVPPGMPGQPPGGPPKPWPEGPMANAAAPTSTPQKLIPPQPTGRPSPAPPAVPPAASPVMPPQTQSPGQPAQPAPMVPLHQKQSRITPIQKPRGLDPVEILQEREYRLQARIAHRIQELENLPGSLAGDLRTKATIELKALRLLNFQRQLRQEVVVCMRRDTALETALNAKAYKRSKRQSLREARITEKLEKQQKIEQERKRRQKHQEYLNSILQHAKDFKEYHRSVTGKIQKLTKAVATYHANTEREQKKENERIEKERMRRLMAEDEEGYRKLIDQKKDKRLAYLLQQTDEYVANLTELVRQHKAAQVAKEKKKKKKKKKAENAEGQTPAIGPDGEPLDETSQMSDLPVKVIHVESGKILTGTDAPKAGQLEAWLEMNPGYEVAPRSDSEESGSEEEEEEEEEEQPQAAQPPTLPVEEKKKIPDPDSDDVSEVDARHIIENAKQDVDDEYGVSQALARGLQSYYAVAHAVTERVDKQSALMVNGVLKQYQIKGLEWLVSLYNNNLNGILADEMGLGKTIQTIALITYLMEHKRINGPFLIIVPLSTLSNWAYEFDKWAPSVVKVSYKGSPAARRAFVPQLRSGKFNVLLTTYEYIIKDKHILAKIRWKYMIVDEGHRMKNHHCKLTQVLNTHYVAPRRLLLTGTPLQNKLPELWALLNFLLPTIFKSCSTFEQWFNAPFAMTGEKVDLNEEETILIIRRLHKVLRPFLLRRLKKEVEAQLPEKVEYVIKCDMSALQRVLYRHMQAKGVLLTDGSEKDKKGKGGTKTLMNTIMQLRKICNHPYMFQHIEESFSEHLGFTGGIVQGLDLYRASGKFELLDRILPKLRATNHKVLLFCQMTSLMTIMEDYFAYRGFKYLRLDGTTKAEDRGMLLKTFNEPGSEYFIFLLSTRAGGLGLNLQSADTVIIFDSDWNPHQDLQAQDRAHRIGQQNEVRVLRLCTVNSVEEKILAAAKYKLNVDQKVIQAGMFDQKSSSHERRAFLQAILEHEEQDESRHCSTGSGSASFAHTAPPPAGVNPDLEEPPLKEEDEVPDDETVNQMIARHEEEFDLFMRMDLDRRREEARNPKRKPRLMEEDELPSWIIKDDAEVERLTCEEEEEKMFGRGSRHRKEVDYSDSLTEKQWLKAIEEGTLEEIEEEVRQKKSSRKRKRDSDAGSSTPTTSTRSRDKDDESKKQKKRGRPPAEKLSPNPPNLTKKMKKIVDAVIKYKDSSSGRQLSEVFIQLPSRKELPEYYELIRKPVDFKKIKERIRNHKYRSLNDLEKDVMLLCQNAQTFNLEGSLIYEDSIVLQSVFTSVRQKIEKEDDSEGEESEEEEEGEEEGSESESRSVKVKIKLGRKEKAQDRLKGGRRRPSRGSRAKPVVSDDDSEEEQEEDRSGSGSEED
Experimental: 1250 cells per well in 60 µl medium were plated in flat bottom, poly-lysin coated 384-well plates (CellCarrier Ultra, Perkin Elmer). The next day, test compounds (10 µl of serial dilutions) and DMSO controls were diluted in DMEM medium such that the final DMSO content was <1% or were added using an ultrasound dispensing system. 4 wells were reserved for a background measurement. […] After aspirating the fixing solution, the cells were washed once with 25 µl PBS. 25 µl of blocking buffer (10% goat serum in PBS) was added and cells were incubated for 30 min, then washed once with PBS. Cells were stained with 20 µl of SMARCA2/4 primary antibody solution (Sigma #HPA029981 RRID:AB_10602406 1:1000 or Cell Signalling #52251 clone E9O6 RRID:AB_2799410 1:1000 in PBS with 10% FCS) for 2–4 h at room temperature. Cells were again washed once with PBS. […] The cell layer was then washed once with 25 µl PBS, the wells were filled with 25 µl PBS and the plates were sealed with an adhesive sheet. They were then imaged on the Opera Phoenix (mean intensity in the nucleus). Results were computed as percent of controls ((value of test compound − background)/(value of the negative control DMSO—background) multiplied by 100). EC50 values were computed using a 4-parametric logistic model.

[1] = 18h, read-out: RKO (18h) SMARCA4 DC50
[2] = TR-FRET competition for PBRM1BD5, without VCB, mean ± SD, read-out: TR-FRET PBRM1BD EC50
[3] = 4h, read-out: RKO (4h) SMARCA4 DC50

## Cc1ncsc1-c1ccc(C(CCC(C)CCN2CCC(c3ccc4c(c3)n(C3CCCC3)c3nc(=O)c5c(Br)cccc5n43)CC2)NC(=O)C2CC(O)CN2C(=O)C(NC(=O)C2(F)CC2)C(C)(C)C)cc1 (stereo not drawn) [ACBI2]
SMARCA4^BD; SMARCA4BD, mean ± SD
  Kd: 314 ± 76 nM
SMARCA4^BD; individual replicates
  Kd: 236 nM and 318 nM and 388 nM
PBRM1BD5
  EC50: 67 ± 9 nM
SMARCA4; [1]
  DC50: 37.7 nM and 30.3 nM and 30.7 nM and 30.9 nM and 26.2 nM and 33.5 nM and 25.2 nM and 30.8 nM and 63.4 nM and 30 nM and 29.1 nM and 27.7 nM

## O=c1nc2n(C3CCCC3)c3ccccc3n2c2cccc(Br)c12 [compound 1]
SMARCA4^BD; SMARCA4BD, mean ± SD
  Kd: 1680 ± 317 nM
SMARCA4^BD; individual replicates
  Kd: 1320 nM and 1830 nM and 1900 nM
PBRM1BD5; [2]
  EC50: 134 ± 28 nM
SMARCA4; [3]
  DC50: > 25000 nM
SMARCA4; [1]
  DC50: > 25000 nM

## Nc1cccc2c1c(=O)nc1n(C3CCCC3)c3ccccc3n21 [compound 2]
SMARCA4^BD; SMARCA4BD, mean ± SD
  Kd: 2750 ± 455 nM
SMARCA4^BD; individual replicates
  Kd: 2.74 µM and 2.3 µM and 3.21 µM and > 2 µM (2×)
PBRM1BD5; [2]
  EC50: 1000 nM
SMARCA4; [3]
  DC50: 2.7 µM and > 25 µM (2×)
SMARCA4; [1]
  DC50: > 25000 nM

## CN1CCC(c2ccc3c(c2)n(C2CCCC2)c2nc(=O)c4c(Br)cccc4n32)CC1 [compound 3]
SMARCA4^BD; SMARCA4BD, mean ± SD
  Kd: 58 ± 10 nM
SMARCA4^BD; individual replicates
  Kd: 110 nM and 97.7 nM and 113 nM and 69.4 nM and 51 nM and 52.7 nM
PBRM1BD5; [2]
  EC50: 31 ± 12 nM
SMARCA4; [3]
  DC50: > 25000 nM
SMARCA4; [1]
  DC50: 6980 nM and 15500 nM and 13600 nM

## Cc1ncsc1-c1ccc([C@H](COC(C)CN2CCC(c3ccc4c(c3)n(C3CCCC3)c3nc(=O)c5c(Br)cccc5n43)CC2)NC(=O)[C@@H]2C[C@@H](O)CN2C(=O)[C@@H](NC(=O)C2(F)CC2)C(C)(C)C)cc1 (stereo partly drawn) [compound 9]
SMARCA4^BD; SMARCA4BD, mean ± SD
  Kd: 505 ± 184 nM
SMARCA4^BD; individual replicates
  Kd: 361 nM and 443 nM and 712 nM
PBRM1BD5; [2]
  EC50: 34 ± 4 nM
SMARCA4; [3]
  DC50: > 25000 nM
SMARCA4; [1]
  DC50: 912 nM and > 833 nM (2×) and 3.47 µM

## Cc1ncsc1-c1ccc([C@H](COC(C)CN2CCC(c3ccc4c(c3)n(C3CCCC3)c3nc(=O)c5c(Br)cccc5n43)CC2)NC(=O)[C@@H]2C[C@@H](O)CN2C(=O)[C@@H](NC(=O)C2(N(C)C)CC2)C(C)(C)C)cc1 (stereo partly drawn) [compound 10]
SMARCA4^BD; SMARCA4BD, mean ± SD
  Kd: 381 ± 28 nM
SMARCA4^BD; individual replicates
  Kd: 359 nM and 413 nM and 372 nM
PBRM1BD5; [2]
  EC50: 31 ± 1 nM
SMARCA4; [3]
  DC50: > 25000 nM
SMARCA4; [1]
  DC50: 103 nM and 218 nM and 235 nM

## Cc1ncsc1-c1ccc([C@H](CCCCCN2CCC(c3ccc4c(c3)n(C3CCCC3)c3nc(=O)c5c(Br)cccc5n43)CC2)NC(=O)[C@@H]2C[C@@H](O)CN2C(=O)[C@@H](NC(=O)C2(F)CC2)C(C)(C)C)cc1 [compound 11]
SMARCA4^BD; SMARCA4BD, mean ± SD
  Kd: 297 ± 147 nM
SMARCA4^BD; individual replicates
  Kd: 201 nM and 223 nM and 466 nM
PBRM1BD5; [2]
  EC50: 41 ± 8 nM
SMARCA4; [3]
  DC50: 20 nM and 10.1 nM and 26.4 nM and 8.2 nM
SMARCA4; [1]
  DC50: 9.56 nM and 14.6 nM and 11.5 nM and 9.12 nM and 15.1 nM

## Cc1ncsc1-c1ccc([C@H](CC[C@H](C)CCN2CCC(c3ccc4c(c3)n(C3CCCC3)c3nc(=O)c5c(Br)cccc5n43)CC2)NC(=O)[C@@H]2C[C@H](O)CN2C(=O)[C@@H](NC(=O)C2(F)CC2)C(C)(C)C)cc1 [compound 12]
SMARCA4^BD; SMARCA4BD, mean ± SD
  Kd: 362 ± 52 nM
SMARCA4^BD; individual replicates
  Kd: 306 nM and 408 nM and 370 nM
PBRM1BD5
  EC50: 75 ± 6 nM
SMARCA4; [3]
  DC50: > 25000 nM
SMARCA4; [1]
  DC50: 4950 nM and 4740 nM and 8100 nM and 6070 nM

## CN1CCN(c2nc(=O)c3c(Cl)cccc3o2)CC1 [compound 13]
SMARCA4^BD; SMARCA4BD, mean ± SD
  Kd: 35600 ± 346 nM
SMARCA4^BD; individual replicates
  Kd: 31600 nM and 37500 nM and 37700 nM
PBRM1BD5; [2]
  EC50: > 10000 nM
SMARCA4; [3]
  DC50: > 25000 nM
SMARCA4; [1]
  DC50: > 25000 nM

## CN1CCN(c2nc(=O)c3ccccc3o2)CC1 [compound 14]
SMARCA4^BD; individual replicates
  Kd: > 200000 nM and 140000 nM
PBRM1BD5; [2]
  EC50: > 10000 nM
SMARCA4; [3]
  DC50: > 25000 nM
SMARCA4; [1]
  DC50: > 25000 nM

## CN1CCN(c2nc(=O)c3c(F)cccc3o2)CC1 [compound 17]
PBRM1BD5; [2]
  EC50: > 10000 nM
SMARCA4; [3]
  DC50: > 25000 nM
SMARCA4; [1]
  DC50: > 25000 nM

## Cc1ncsc1-c1ccc(CNC(=O)[C@@H]2C[C@@H](O)CN2C(=O)[C@@H](NC(=O)C2(F)CC2)C(C)(C)C)c(OCCCCN2CCC(c3ccc4c(c3)n(C3CCCC3)c3nc(=O)c5c(Br)cccc5n43)CC2)c1 [compound 23]
SMARCA4^BD; SMARCA4BD, mean ± SD
  Kd: 169 ± 76 nM
SMARCA4^BD; individual replicates
  Kd: 117 nM and 133 nM and 256 nM
PBRM1BD5; [2]
  EC50: 39 ± 5 nM
